The values below come from patent US8686155B2, “Aurora kinase modulators and method of use” (Amgen Inc., priority 2006, dated 2014).

This test has as its system phosphorylation of Histone H3 in HeLa cells. The experiment in a line: HeLa cell 1-hour phospho-histone assay. It counts as cell-based. The following applies: Homo sapiens, % of cells pHH3 positive, read-out: inhibitory activity (EC50) in the phospho-histone H3 assay. On the procedure: HeLa Cell 1-Hour Phospho-Histone Assay
The purpose of this assay is to test the inhibitory effect of Aurora compounds with respect to phosphorylation of Histone H3 in the cellular context. HeLa cells (9×10^4/well) are plated in black 96-well flat-bottom tissue culture plates and incubated for 40 hours prior to compound addition. Compounds are serially diluted in DMSO, followed by dilution into MEM containing 10 mM HEPES; 10 ul/well of diluted compounds are added to cells (0.5% DMSO final). Cells are incubated for 1 hour at 37° C. in 5% CO2. Cells are then fixed with 3.7% formaldehyde for 10 minutes, washed with wash buffer (1% goat serum and 0.1% Tween 20 in PBS), then permeabilized with 0.5% Triton X in PBS for 15 minutes. After washing with wash buffer, cells are incubated with primary antibody (Upstate #06-507 anti-phospho-histone (Ser 10) antibody (pHH3) for 1 hour at 10 ug/ml. After 2 washes with wash buffer, cells are incubated with secondary antibody (Molecular Probes #A11034 goat anti-rabbit Alexa-488 for 1 hour at 1 ug/ml+Hoechst 33342 nuclear dye at 1 ug/ml (Molecular Probes). Cells are washed 2 times with wash buffer, and buffer replaced with PBS. Plates are scanned on the Cellomics Array Scan (6 fields, ˜2000 cells/well) and % of cells that are pHH3 positive were calculated using the Cellomics algorithm.

Where two headings read alike, the source gives them in different places.

As a reminder, the EC50 is the concentration at which the effect is half-maximal. For the compound `CNc1nccc(-c2cccnc2Oc2ccc(Nc3nnc(-c4cc(C)cs4)c4c3CCC4)cc2)n1` [Example 122, N-(4-((3-(2-(methylamino)-4-pyrimidinyl)-2-pyridinyl)oxy)phenyl)-4-(4-methyl-2-thienyl)-6,7-dihydro-5H-cyclopenta[d] pyridazin-1-amine], the concentration giving a half-maximal response (EC50) was < 10000 nM. For the same compound, the EC50 (unit inferred) was < 1000 nM.
As to `CNc1nccc(-c2cccnc2Oc2ccc(Nc3nnc(-c4ccccc4)c4c3C3CCC4CC3)cc2)n1` [Example 107, N-(4-((3-(2-(methylamino)-4-pyrimidinyl)-2-pyridinyl)oxy)phenyl)-6-phenyl-4,5-diazatricyclo [6.2.2.0~2,7~]dodeca-2,4,6-trien-3-amine], the half-maximal effective concentration (EC50) (unit inferred) was < 1000 nM.
Take `CNc1nccc(-c2cccnc2Oc2ccc(Nc3nnc(-c4ccccc4)c4c3CCCC4)cc2)n1` [Example 123, N-(4-((3-(2-(methylamino)-4-pyrimidinyl)-2-pyridinyl)oxy)phenyl)-4-phenyl-5,6,7,8-tetrahydro-1-phthalazinamine]: the half-maximal effective concentration (EC50) was < 10000 nM. Further, where the note is “unit inferred”, the 50% effective concentration (EC50) was < 1000 nM.
